These results are taken from patent US20120039844A1, “COMPOSITION AND USE OF N-ALPHA-METHYLHISTAMINE DIHYDROCHLORIDE FOR THE REDUCTION OF OXYGEN RADICAL FORMATION” (priority 2009, published 2012).

The test system of series [1] is human mononuclear phagocytes. Description: fMLF-induced oxygen radical formation (respiratory burst) in mononuclear phagocytes. The series is classed as cell-based. The settings on record: FIG. 1.
Series [2] has as its system NK cells. Description: Protection of NK cells from apoptosis inflicted by mononuclear phagocytes. In kind it is cell-based, human. The settings on record: FIG. 2. Here is the method: The ability of N-α-MH to protect NK cells from apoptosis inflicted by mononuclear phagocytes was evaluated. Cells were prepared as described by Hellstrand et al., J. Immunol., vol. 153, pp 4940-7, and mixtures of mononuclear phagocytes and NK cells were incubated overnight with HDC or N-α-MH at indicated final concentrations in 96-well microplates. Thereafter, cells were recovered and NK cells were analyzed for apoptosis (forward and side scatter) as described in Betten et al., J. Clin. Invest. Vol. 108, pp 1221-8 (hereby incorporated by reference in its entirety). FIG. 2 plots the results of six similar experiments.

Series [3] has as its system NK cells. The series is described as follows: CD69 expression on NK cells exposed to IL-2. In kind it is cell-based. The settings on record: with human recombinant IL-2 50 U/ml, overnight; FIG. 3. How it is done: Three separate experiments were performed as described above with the addition of human recombinant IL-2 (50 U/ml) during the overnight incubation. The experiments were initiated with the aim at clarifying whether N-α-MH synergizes with IL-2 to activate NK cells in a fashion similar to HDC. The activation of NK cells by IL-2 was measured as the capacity of these cells to express the cell surface activation antigen CD69 (See, generally Hellstrand et al. JI 1994).

For a further series, the system named is B16 melanoma cells. The series is described as follows: i.v. injected B16 melanoma in mice (lung tumor weight, pulmonary metastatic foci). The series is classed as in vivo. The settings on record: for tumor weight (wet lung weight at day 14) vs control mice: 24 hours before tumor cell inoculation, FIG. 4. Here is the method: The anti-tumor properties of N-α-MH on i.v. injected B16 melanoma cells in mice were evaluated. One of N-α-MH, HDC, and a positive control were administered to the mice 24 hours before tumor cell inoculation as described by Hellstrand et al., J. Immunol., vol. 145, pp 4365-4370. Macroscopically visible pulmonary metastatic foci were counted fourteen days after the tumor cell inoculation. The tumor weight is the wet weight at day 14 of lungs from mice injected with tumor cells on day 0 as described by Hellstrand et al., J. Immunol., vol. 145, pp 4365-4370.

In the next series the target is H2 receptor (Homo sapiens, UniProt P25021). The settings on record: Saitoh et al., Gut 2002; cited from earlier work.
The next series addresses H1 receptors (Homo sapiens, UniProt P35367). The settings on record: cited from earlier work.
For series [4] the following is noted: in the blood; cited from earlier work.

Chain of H1 receptors (P35367 whole entry): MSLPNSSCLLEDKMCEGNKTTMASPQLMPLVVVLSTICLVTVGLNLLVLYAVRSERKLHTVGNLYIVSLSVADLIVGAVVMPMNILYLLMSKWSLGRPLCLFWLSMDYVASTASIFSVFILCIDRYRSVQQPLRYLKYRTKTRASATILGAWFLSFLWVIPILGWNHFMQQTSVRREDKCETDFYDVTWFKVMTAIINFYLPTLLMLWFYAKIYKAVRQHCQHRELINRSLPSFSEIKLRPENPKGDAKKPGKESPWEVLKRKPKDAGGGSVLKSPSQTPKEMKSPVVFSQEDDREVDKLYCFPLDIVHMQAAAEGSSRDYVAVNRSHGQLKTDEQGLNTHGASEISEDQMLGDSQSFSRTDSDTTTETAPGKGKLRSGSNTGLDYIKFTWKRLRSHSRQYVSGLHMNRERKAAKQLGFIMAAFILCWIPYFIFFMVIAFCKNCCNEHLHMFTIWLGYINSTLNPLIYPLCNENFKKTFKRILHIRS
Chain of H2 receptor (P25021 whole entry): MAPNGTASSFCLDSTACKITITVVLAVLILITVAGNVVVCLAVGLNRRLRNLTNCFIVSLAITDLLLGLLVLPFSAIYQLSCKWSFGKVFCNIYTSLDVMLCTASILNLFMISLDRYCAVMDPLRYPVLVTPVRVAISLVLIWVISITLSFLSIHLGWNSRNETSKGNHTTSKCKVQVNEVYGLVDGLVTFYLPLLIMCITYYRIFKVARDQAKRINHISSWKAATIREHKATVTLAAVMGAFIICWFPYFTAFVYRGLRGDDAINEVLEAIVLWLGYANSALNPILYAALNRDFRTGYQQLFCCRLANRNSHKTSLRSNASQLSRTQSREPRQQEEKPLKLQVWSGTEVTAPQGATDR

As to `CNCCc1c[nH]cn1` [N-α-MH, N-alpha-methyl-histamine], the “inhibition of oxygen radical production” value in series [1] (5 min preincubation, then fMLF) is listed as “potent inhibitor of oxygen radical production”. For the same compound, the “maximal response in terms of oxygen radical inhibition, compared with HDC” value in series [1] (in vitro) is “at least comparable to HDC”. The EC50 with NK cells [2] (Homo sapiens, overnight incubation with mononuclear phagocytes, six experiments, read-out: ED50 for protection of NK cells) was found to be 2200 nM. The “protection of NK cells from apoptosis, compared with HDC” value with NK cells [2] (in vitro) is “equally potent and effective at protecting NK cells from apoptosis as HDC”. Further, in the series on NK cells [3], the “expression of CD69 on NK cells” value is “synergized with IL-2 to induce expression of CD69 on NK cells”. The “potency relative to HDC in reducing tumor weight in vivo” value in the series on B16 melanoma cells (5 mg/kg N-α-MH equal to 50 mg/kg histamine) is given as “about 10 times”. The “tumor weight (wet lung weight at day 14) vs control mice” value in the series with B16 melanoma cells (5 mg/kg) and in the series on B16 melanoma cells (50 mg/kg) was “significantly reduced tumor weight” in each case. In the series with B16 melanoma cells (5 mg/kg, 14 days after inoculation, FIG. 5), the “extent of tumor reduction (lung metastases) compared with HDC at 50 mg/kg” value is “about equal”. The “number of melanoma lung metastases vs control mice” value in the series with B16 melanoma cells (50 mg/kg, 14 days after inoculation, FIG. 5) is on record as “significantly less lung metastases than control mice”. For the same compound, the “potency relative to HDC in reducing melanoma metastasis in vivo” value in the series with B16 melanoma cells (FIG. 5) is “approximately 10 times”. Moreover, the “potency relative to HDC in reducing tumor formation in vivo” value in the series on B16 melanoma cells (mouse, in vivo) is recorded as “approximately 10 times”. The “potency in stimulating cAMP production via the H2 receptor, compared with histamine” value at H2 receptor is recorded as “significantly more potent than histamine”. For the same compound, the “activity at H1 receptors” value on H1 receptors is recorded as “little or no activity at H1 receptors”.
As for `Cl.Cl.NCCc1c[nH]cn1` [HDC, histamine dihydrochloride], the “tumor weight (wet lung weight at day 14) vs control mice” value with B16 melanoma cells (50 mg/kg) is “significantly reduced tumor weight”. Also, the half life entry in series [4] is given as “five”.
